# Tests used:
# mMC5R = mMC5R (Mus musculus, UniProt P41149); assay: cAMP based functional bioassay (CRE/β-galactosidase reporter), agonist activity at mMC5R
# Procedure: (§1) The compounds were evaluated using a whole cell assay.
# (§2) Compounds were dissolved in DMSO at a stock concentration of 10^−2 M and stored at −20° C. until assayed. HEK-293 cells stably expressing the selected melanocortin receptors were transiently transfected with 4 μg of CRE/β-galactosidase reporter gene. Briefly, 5000-15000 post transfection cells were plated into collagen treated 96-well plates (Nunc) and incubated overnight. […] The assay media was aspirated, and 50 μL of lysis buffer (250 mM Tris-HCl pH=8.0 and 0.1% Triton X-100) was added. The plates were stored at −80° C. overnight. The plates containing the cell lysates were thawed the following day. Aliquots of 10 μL were taken from each well and transferred to another 96-well plate for relative protein determination. To the cell lysate plates, 40 μL of phosphate-buffered saline with 0.5% BSA was added to each well. Subsequently, 150 μL of substrate buffer (60 mM sodium phosphate, 1 mM MgCl2, 10 mM KCl, 5 mM β-mercaptoethanol, 2 mg/mL ONPG) was added to each well and the plates were incubated at 37° C. The sample absorbance, OD405, was measured using a 96-well plate reader (Molecular Devices). The relative protein was determined by adding 200 μL of 1:5 dilution BioRad G250 protein dye:water to the 10 μL of cell lysate sample taken previously, and the OD595 was measured on a 96-well plate reader (Molecular Devices). Data points were normalized to forskolin and the relative protein content were used as positive controls. The EC50 values represent the mean of three or more independent experiments. The EC50 estimates, and their associated standard errors of the mean, were determined by fitting the data to a nonlinear least-squares analysis using the PRISM program (v4.0, GraphPad Inc.).
# (§3) The results are tabulated in the form of EC50 values. In the case where the particular receptor was not activated to full activity at 100,000 nM, then the relative activity was reported.
# mMC4R = mMC4R (Mus musculus, UniProt P56450); assay: cAMP based functional bioassay (CRE/β-galactosidase reporter), agonist activity at mMC4R; details: for mMC4R Activity @ 10 μM (class) / mMC4R Activity @ 10 μM (relative activity, percent): reported where receptor not activated to full activity
# Procedure: as §1, §2, §3
# mMC3R = mMC3R (Mus musculus, UniProt P33033); assay: cAMP based functional bioassay (CRE/β-galactosidase reporter), agonist activity at mMC3R; details: for mMC3R Activity @ 10 μM (class) / mMC3R Activity @ 10 μM (relative activity, percent): reported where receptor not activated to full activity
# Chain of mMC3R (P33033 whole entry): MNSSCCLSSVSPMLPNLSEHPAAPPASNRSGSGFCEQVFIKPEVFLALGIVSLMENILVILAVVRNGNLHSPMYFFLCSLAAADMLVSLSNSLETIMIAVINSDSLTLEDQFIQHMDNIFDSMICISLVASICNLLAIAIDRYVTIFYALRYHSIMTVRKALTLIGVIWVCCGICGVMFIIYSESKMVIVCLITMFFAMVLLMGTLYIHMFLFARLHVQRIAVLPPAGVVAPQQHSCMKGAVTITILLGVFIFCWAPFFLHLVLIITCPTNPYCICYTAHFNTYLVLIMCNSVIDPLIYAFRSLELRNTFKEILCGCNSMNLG
# Procedure: as §1, §2, §3
# mMC1R = mMC1R (Mus musculus, UniProt Q01727); assay: cAMP based functional bioassay (CRE/β-galactosidase reporter), agonist activity at mMC1R; details: for mMC1R Activity @ 10 μM (class) / mMC1R Activity @ 10 μM (relative activity, percent): reported where receptor not activated to full activity
# Chain of mMC1R (Q01727 whole entry): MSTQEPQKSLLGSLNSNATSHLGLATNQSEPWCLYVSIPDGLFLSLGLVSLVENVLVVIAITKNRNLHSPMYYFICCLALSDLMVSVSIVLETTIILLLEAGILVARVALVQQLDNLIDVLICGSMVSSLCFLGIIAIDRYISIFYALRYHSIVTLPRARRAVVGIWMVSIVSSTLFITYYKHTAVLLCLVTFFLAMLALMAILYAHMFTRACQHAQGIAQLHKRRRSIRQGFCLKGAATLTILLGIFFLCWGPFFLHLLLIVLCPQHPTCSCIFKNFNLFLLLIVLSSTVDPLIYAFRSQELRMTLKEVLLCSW
# Procedure: as §1, §2, §3
# Chain of mMC5R (P41149 whole entry): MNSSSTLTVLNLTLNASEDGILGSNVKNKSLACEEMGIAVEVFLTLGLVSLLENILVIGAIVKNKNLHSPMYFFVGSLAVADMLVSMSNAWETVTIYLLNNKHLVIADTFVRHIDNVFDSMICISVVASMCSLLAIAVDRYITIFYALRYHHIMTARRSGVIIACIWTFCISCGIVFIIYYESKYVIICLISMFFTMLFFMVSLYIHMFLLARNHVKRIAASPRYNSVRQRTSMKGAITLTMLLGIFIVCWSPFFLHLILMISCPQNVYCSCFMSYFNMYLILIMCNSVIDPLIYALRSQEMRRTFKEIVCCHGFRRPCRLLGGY
# Chain of mMC4R (P56450 whole entry): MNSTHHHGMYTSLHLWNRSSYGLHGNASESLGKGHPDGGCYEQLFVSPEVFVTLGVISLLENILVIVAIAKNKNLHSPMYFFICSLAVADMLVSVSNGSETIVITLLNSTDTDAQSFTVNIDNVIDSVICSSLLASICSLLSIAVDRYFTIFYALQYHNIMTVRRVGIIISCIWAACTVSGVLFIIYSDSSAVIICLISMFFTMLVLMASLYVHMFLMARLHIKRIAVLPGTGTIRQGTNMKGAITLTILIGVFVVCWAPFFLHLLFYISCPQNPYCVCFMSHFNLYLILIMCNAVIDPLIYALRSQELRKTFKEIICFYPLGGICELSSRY
structure (smiles),measurement,setting,value
CC(C)CCCN1C(=N)N([C@H](CC2CCCCC2)CN2CCC[C@H]2CN2C(=N)NC[C@H]2CC(C)C)C[C@H]1[C@H](C)O [TPI 2509-6],EC50,mMC5R,630 ± 50 nM
same,mMC4R Activity @ 10 μM (class),mMC4R,A (A: <50%)
same,mMC3R Activity @ 10 μM (class),mMC3R,B (B: >51%)
same,"mMC3R Activity @ 10 μM (relative activity, percent)",mMC3R,58%
same,EC50,mMC1R,7300 ± 4400 nM
CCC[C@@H]1CN([C@H](CC2CCCCC2)CN2CCC[C@H]2CN2C(=N)NC[C@H]2CC(C)C)C(=N)N1CC12CC3CC(CC(C3)C1)C2 [TPI 2509-7],EC50,mMC5R,470 ± 90 nM
same,mMC4R Activity @ 10 μM (class),mMC4R,A (A: <50%)
same,"mMC4R Activity @ 10 μM (relative activity, percent)",mMC4R,51%
same,mMC3R Activity @ 10 μM (class),mMC3R,B (B: >51%)
same,"mMC3R Activity @ 10 μM (relative activity, percent)",mMC3R,67%
same,mMC1R Activity @ 10 μM (class),mMC1R,B (B: >51%)
same,"mMC1R Activity @ 10 μM (relative activity, percent)",mMC1R,70%
"CCC[C@@H]1CN([C@H](CC2CCCCC2)CN2CCC[C@H]2CN2C(=N)NC[C@H]2CC(C)C)C(=N)N1CC1CCC(C(C)(C)C)CC1 (stereo partly drawn) [TPI 2509-8, (R)-3-((4-(tert-butyl)cyclohexyl)methyl)-1-((R)-1-cyclohexyl-3-((S)-2-(((R)-2-imino-5-isobutylimidazolidin-1-yl)methyl)pyrrolidin-1-yl)propan-2-yl)-4-propylimidazolidin-2-imine]",EC50,mMC5R,530 ± 50 nM
same,mMC4R Activity @ 10 μM (class),mMC4R,B (B: >51%)
same,"mMC4R Activity @ 10 μM (relative activity, percent)",mMC4R,65%
same,mMC3R Activity @ 10 μM (class),mMC3R,B (B: >51%)
same,"mMC3R Activity @ 10 μM (relative activity, percent)",mMC3R,75%
same,EC50,mMC1R,500 ± 50 nM
CCC[C@@H]1CN([C@H](CC2CCCCC2)CN2CCC[C@H]2CN2C(=N)NC[C@H]2CC(C)C)C(=N)N1CCCC(C)C [TPI 2509-9],EC50,mMC5R,1800 ± 130 nM
same,EC50,mMC4R,6700 ± 2400 nM
same,mMC3R Activity @ 10 μM (class),mMC3R,B (B: >51%)
same,"mMC3R Activity @ 10 μM (relative activity, percent)",mMC3R,58%
same,EC50,mMC1R,2300 ± 90 nM
CC(C)C[C@@H]1CNC(=N)N1C[C@@H]1CCCN1C[C@@H](CC1CCCCC1)N1C[C@@H](C(C)C)N(CC23CC4CC(CC(C4)C2)C3)C1=N [TPI 2509-10],EC50,mMC5R,500 ± 40 nM
same,mMC4R Activity @ 10 μM (class),mMC4R,A (A: <50%)
same,"mMC4R Activity @ 10 μM (relative activity, percent)",mMC4R,50%
same,mMC3R Activity @ 10 μM (class),mMC3R,B (B: >51%)
same,"mMC3R Activity @ 10 μM (relative activity, percent)",mMC3R,70%
same,EC50,mMC1R,570 ± 150 nM
CC(C)CCCN1C(=N)N([C@H](CC2CCCCC2)CN2CCC[C@H]2CN2C(=N)NC[C@H]2CC(C)C)C[C@H]1C(C)C [TPI 2509-12],EC50,mMC5R,1850 ± 800 nM
same,mMC4R Activity @ 10 μM (class),mMC4R,B (B: >51%)
same,mMC3R Activity @ 10 μM (class),mMC3R,A (A: <50%)
same,"mMC3R Activity @ 10 μM (relative activity, percent)",mMC3R,33%
same,mMC1R Activity @ 10 μM (class),mMC1R,B (B: >51%)
same,"mMC1R Activity @ 10 μM (relative activity, percent)",mMC1R,50%
"CCC[C@@H]1CN([C@H](Cc2ccccc2)CN2CCC[C@H]2CN2C(=N)NC[C@H]2CC(C)C)C(=N)N1CC12CC3CC(CC(C3)C1)C2 [TPI 2509-16, (R)-3-(adamantan-1-ylmethyl)-1-((R)-1-((S)-2-(((R)-2-imino-5-isobutylimidazolidin-1-yl)methyl)pyrrolidin-1-yl)-3-phenylpropan-2-yl)-4-propylimidazolidin-2-imine]",EC50,mMC5R,610 ± 160 nM
same,EC50,mMC4R,1330 ± 510 nM
same,mMC3R Activity @ 10 μM (class),mMC3R,B (B: >51%)
same,"mMC3R Activity @ 10 μM (relative activity, percent)",mMC3R,74%
same,EC50,mMC1R,7000 ± 6100 nM
CCC[C@@H]1CN([C@H](Cc2ccccc2)CN2CCC[C@H]2CN2C(=N)NC[C@H]2CC(C)C)C(=N)N1CC1CCC(C(C)(C)C)CC1 (stereo partly drawn) [TPI 2509-17],EC50,mMC5R,480 ± 170 nM
same,mMC4R Activity @ 10 μM (class),mMC4R,A (A: <50%)
same,"mMC4R Activity @ 10 μM (relative activity, percent)",mMC4R,28%
same,mMC3R Activity @ 10 μM (class),mMC3R,B (B: >51%)
same,"mMC3R Activity @ 10 μM (relative activity, percent)",mMC3R,83%
same,mMC1R Activity @ 10 μM (class),mMC1R,A (A: <50%)
same,"mMC1R Activity @ 10 μM (relative activity, percent)",mMC1R,38%
"CC(C)C[C@@H]1CNC(=N)N1C[C@@H]1CCCN1C[C@@H](Cc1ccccc1)N1C[C@@H](C(C)C)N(CC23CC4CC(CC(C4)C2)C3)C1=N [TPI 2509-19, (R)-3-(adamantan-1-ylmethyl)-1-((R)-1-((S)-2-(((R)-2-imino-5-isobutylimidazolidin-1-yl)methyl)pyrrolidin-1-yl)-3-phenylpropan-2-yl)-4-isopropylimidazolidin-2-imine]",EC50,mMC5R,440 ± 110 nM
same,EC50,mMC4R,8200 ± 3550 nM
same,mMC3R Activity @ 10 μM (class),mMC3R,B (B: >51%)
same,"mMC3R Activity @ 10 μM (relative activity, percent)",mMC3R,67%
same,EC50,mMC1R,15500 ± 14000 nM
"CC(C)C[C@@H]1CNC(=N)N1C[C@@H]1CCCN1C[C@@H](Cc1ccccc1)N1C[C@@H](C(C)C)N(CC2CCC(C(C)(C)C)CC2)C1=N (stereo partly drawn) [TPI 2509-20, (R)-3-((4-(tert-butyl)cyclohexyl)methyl)-1-((R)-1-((S)-2-(((R)-2-imino-5-isobutylimidazolidin-1-yl)methyl)pyrrolidin-1-yl)-3-phenylpropan-2-yl)-4-isopropylimidazolidin-2-imine]",EC50,mMC5R,560 ± 170 nM
same,mMC3R Activity @ 10 μM (class),mMC3R,B (B: >51%)
same,"mMC3R Activity @ 10 μM (relative activity, percent)",mMC3R,62%
same,EC50,mMC1R,6800 ± 600 nM
"CC(C)CCCN1C(=N)N([C@H](CC2CCCCC2)CN2CCC[C@H]2CN2C(=N)NC[C@H]2C(C)C)C[C@H]1[C@@H](C)O [TPI 2509-24, (R)-1-((S)-1-((R)-1-cyclohexyl-3-((S)-2-(((R)-2-imino-5-isopropylimidazolidin-1-yl)methyl)pyrrolidin-1-yl)propan-2-yl)-2-imino-3-(4-methylpentyl)imidazolidin-4-yl)ethanol]",EC50,mMC5R,740 ± 270 nM
same,EC50,mMC3R,5200 ± 1540 nM
same,EC50,mMC1R,700 ± 80 nM
"CCC[C@@H]1CN([C@H](CC2CCCCC2)CN2CCC[C@H]2CN2C(=N)NC[C@H]2C(C)C)C(=N)N1CC12CC3CC(CC(C3)C1)C2 [TPI 2509-25, (R)-3-(adamantan-1-ylmethyl)-1-((R)-1-cyclohexyl-3-((S)-2-(((R)-2-imino-5-isopropylimidazolidin-1-yl)methyl)pyrrolidin-1-yl)propan-2-yl)-4-propylimidazolidin-2-imine]",EC50,mMC5R,590 ± 180 nM
same,mMC4R Activity @ 10 μM (class),mMC4R,A (A: <50%)
same,"mMC4R Activity @ 10 μM (relative activity, percent)",mMC4R,45%
same,EC50,mMC3R,2800 ± 1800 nM
same,EC50,mMC1R,550 nM
CCC[C@@H]1CN([C@H](CC2CCCCC2)CN2CCC[C@H]2CN2C(=N)NC[C@H]2C(C)C)C(=N)N1CCCC(C)C [TPI 2509-27],EC50,mMC5R,1040 ± 150 nM
same,mMC4R Activity @ 10 μM (class),mMC4R,A (A: <50%)
same,"mMC4R Activity @ 10 μM (relative activity, percent)",mMC4R,40%
same,mMC3R Activity @ 10 μM (class),mMC3R,B (B: >51%)
same,mMC1R Activity @ 10 μM (class),mMC1R,B (B: >51%)
"CC(C)[C@@H]1CNC(=N)N1C[C@@H]1CCCN1C[C@@H](CC1CCCCC1)N1C[C@@H](C(C)C)N(CC23CC4CC(CC(C4)C2)C3)C1=N [TPI 2509-28, (R)-3-(adamantan-1-ylmethyl)-1-((R)-1-cyclohexyl-3-((S)-2-(((R)-2-imino-5-isopropylimidazolidin-1-yl)methyl)pyrrolidin-1-yl)propan-2-yl)-4-isopropylimidazolidin-2-imine]",EC50,mMC5R,580 ± 160 nM
same,mMC4R Activity @ 10 μM (class),mMC4R,A (A: <50%)
same,"mMC4R Activity @ 10 μM (relative activity, percent)",mMC4R,40%
same,EC50,mMC3R,3700 ± 880 nM
same,EC50,mMC1R,300 ± 30 nM
"CC(C)[C@@H]1CNC(=N)N1C[C@@H]1CCCN1C[C@@H](Cc1ccccc1)N1C[C@@H](C(C)C)N(CC2CCC(C(C)(C)C)CC2)C1=N (stereo partly drawn) [TPI 2509-38, (R)-3-((4-(tert-butyl)cyclohexyl)methyl)-1-((R)-1-((S)-2-(((R)-2-imino-5-isopropylimidazolidin-1-yl)methyl)pyrrolidin-1-yl)-3-phenylpropan-2-yl)-4-isopropylimidazolidin-2-imine]",EC50,mMC5R,600 ± 170 nM
same,mMC3R Activity @ 10 μM (class),mMC3R,B (B: >51%)
same,"mMC3R Activity @ 10 μM (relative activity, percent)",mMC3R,68%
same,EC50,mMC1R,29100 ± 20000 nM
